Assay: xn = mol fraction of the nth substance listed
Conditions: 100.5 kPa, Liquid; for viscosity: Capillary tube (Ostwald / Ubbelohde) method

CC(=O)OCc1ccccc1 [benzyl ethanoate] + CCO
Conditions | mass density, 288.15 K [kg/m3] | mass density, 298.15 K [kg/m3] | mass density, 308.15 K [kg/m3] | mass density, 318.15 K [kg/m3] | viscosity, 288.15 K [mPa·s] | viscosity, 298.15 K [mPa·s] | viscosity, 308.15 K [mPa·s] | viscosity, 318.15 K [mPa·s]
x1 = 0.05 | 825.52 | 816.73 | 807.83 | 798.78 | 1.317 | 1.089 | 0.91 | 0.766
x1 = 0.1 | 852.86 | 843.91 | 834.85 | 825.63 | 1.328 | 1.098 | 0.92 | 0.779
x1 = 0.15 | 876.56 | 867.47 | 858.28 | 848.94 | 1.357 | 1.123 | 0.942 | 0.796
x1 = 0.2 | 897.58 | 888.4 | 879.1 | 869.66 | 1.393 | 1.154 | 0.967 | 0.821
x1 = 0.25 | 916.18 | 906.92 | 897.57 | 888.07 | 1.439 | 1.191 | 0.998 | 0.846
x1 = 0.3 | 932.86 | 923.54 | 914.12 | 904.56 | 1.489 | 1.231 | 1.031 | 0.875
x1 = 0.35 | 947.82 | 938.44 | 928.98 | 919.38 | 1.543 | 1.274 | 1.067 | 0.906
x1 = 0.4 | 961.41 | 952 | 942.5 | 932.88 | 1.601 | 1.319 | 1.104 | 0.937
x1 = 0.45 | 973.74 | 964.29 | 954.76 | 945.12 | 1.661 | 1.365 | 1.142 | 0.971
x1 = 0.5 | 984.92 | 975.44 | 965.91 | 956.27 | 1.724 | 1.413 | 1.182 | 1.005
x1 = 0.55 | 995.2 | 985.72 | 976.17 | 966.52 | 1.789 | 1.465 | 1.223 | 1.04
x1 = 0.6 | 1004.68 | 995.21 | 985.66 | 976.03 | 1.859 | 1.518 | 1.268 | 1.077
x1 = 0.65 | 1013.4 | 1003.92 | 994.38 | 984.76 | 1.929 | 1.571 | 1.312 | 1.116
x1 = 0.7 | 1021.55 | 1012.1 | 1002.56 | 992.96 | 2.003 | 1.629 | 1.36 | 1.156
x1 = 0.75 | 1029.05 | 1019.58 | 1010.07 | 1000.51 | 2.081 | 1.691 | 1.409 | 1.197
x1 = 0.8 | 1036.05 | 1026.61 | 1017.13 | 1007.6 | 2.163 | 1.76 | 1.463 | 1.241
x1 = 0.85 | 1042.59 | 1033.16 | 1023.71 | 1014.22 | 2.249 | 1.83 | 1.524 | 1.289
x1 = 0.9 | 1048.78 | 1039.39 | 1029.98 | 1020.53 | 2.339 | 1.906 | 1.588 | 1.341
x1 = 0.95 | 1054.57 | 1045.21 | 1035.84 | 1026.44 | 2.44 | 1.987 | 1.652 | 1.392
x1 = 1 | 1060.11 | 1050.75 | 1041.39 | 1032.03 | 2.53 | 2.056 | 1.703 | 1.432

CCC(=O)OCc1ccccc1 [benzyl propanoate] + CCO
Conditions | mass density, 288.15 K [kg/m3] | mass density, 298.15 K [kg/m3] | mass density, 308.15 K [kg/m3] | mass density, 318.15 K [kg/m3] | viscosity, 288.15 K [mPa·s] | viscosity, 298.15 K [mPa·s] | viscosity, 308.15 K [mPa·s] | viscosity, 318.15 K [mPa·s]
x1 = 0.05 | 825.63 | 816.86 | 807.99 | 798.97 | 1.352 | 1.115 | 0.929 | 0.777
x1 = 0.1 | 852.43 | 843.5 | 834.48 | 825.3 | 1.379 | 1.14 | 0.949 | 0.795
x1 = 0.15 | 875.21 | 866.17 | 857.03 | 847.75 | 1.42 | 1.173 | 0.976 | 0.819
x1 = 0.2 | 894.95 | 885.82 | 876.6 | 867.25 | 1.466 | 1.211 | 1.009 | 0.848
x1 = 0.25 | 912.16 | 902.96 | 893.68 | 884.27 | 1.516 | 1.253 | 1.044 | 0.879
x1 = 0.3 | 927.38 | 918.13 | 908.8 | 899.34 | 1.571 | 1.298 | 1.084 | 0.913
x1 = 0.35 | 940.83 | 931.54 | 922.17 | 912.69 | 1.631 | 1.348 | 1.127 | 0.95
x1 = 0.4 | 952.87 | 943.55 | 934.16 | 924.65 | 1.694 | 1.401 | 1.171 | 0.988
x1 = 0.45 | 963.72 | 954.39 | 944.97 | 935.46 | 1.757 | 1.454 | 1.217 | 1.027
x1 = 0.5 | 973.57 | 964.22 | 954.79 | 945.28 | 1.821 | 1.509 | 1.263 | 1.067
x1 = 0.55 | 982.43 | 973.07 | 963.63 | 954.12 | 1.886 | 1.564 | 1.31 | 1.107
x1 = 0.6 | 990.54 | 981.17 | 971.74 | 962.24 | 1.952 | 1.621 | 1.358 | 1.148
x1 = 0.65 | 997.98 | 988.61 | 979.19 | 969.71 | 2.019 | 1.678 | 1.407 | 1.19
x1 = 0.7 | 1004.81 | 995.44 | 986.04 | 976.58 | 2.088 | 1.737 | 1.457 | 1.233
x1 = 0.75 | 1011.09 | 1001.73 | 992.35 | 982.93 | 2.158 | 1.797 | 1.509 | 1.278
x1 = 0.8 | 1016.98 | 1007.63 | 998.28 | 988.88 | 2.23 | 1.858 | 1.562 | 1.323
x1 = 0.85 | 1022.5 | 1013.15 | 1003.82 | 994.46 | 2.305 | 1.921 | 1.617 | 1.37
x1 = 0.9 | 1027.59 | 1018.25 | 1008.96 | 999.64 | 2.383 | 1.986 | 1.674 | 1.419
x1 = 0.95 | 1032.37 | 1023.06 | 1013.8 | 1004.53 | 2.463 | 2.053 | 1.729 | 1.468
x1 = 1 | 1036.86 | 1027.6 | 1018.38 | 1009.15 | 2.55 | 2.123 | 1.787 | 1.515

From the NIST ThermoML archive (doi:10.1021/je050402s)
